pIC50: −log10 of the molar value. Like-named read-outs stand apart in the source and are kept apart here.
Tests used:
[1] = target: T1, CYP17 (human testicular microsome) (Homo sapiens, UniProt P05093); experiment: CYP17 enzymatic assay (IC50) (Biological Example 4); format: biochemical; conditions: human testicular microsome
T1 construct: using microsomal fraction from human testis (Celsis Cat #S00110) as the enzyme source; tissue Celsis S00110; host or cells: human testis microsomal fraction
T1 sequence (P05093 1-508): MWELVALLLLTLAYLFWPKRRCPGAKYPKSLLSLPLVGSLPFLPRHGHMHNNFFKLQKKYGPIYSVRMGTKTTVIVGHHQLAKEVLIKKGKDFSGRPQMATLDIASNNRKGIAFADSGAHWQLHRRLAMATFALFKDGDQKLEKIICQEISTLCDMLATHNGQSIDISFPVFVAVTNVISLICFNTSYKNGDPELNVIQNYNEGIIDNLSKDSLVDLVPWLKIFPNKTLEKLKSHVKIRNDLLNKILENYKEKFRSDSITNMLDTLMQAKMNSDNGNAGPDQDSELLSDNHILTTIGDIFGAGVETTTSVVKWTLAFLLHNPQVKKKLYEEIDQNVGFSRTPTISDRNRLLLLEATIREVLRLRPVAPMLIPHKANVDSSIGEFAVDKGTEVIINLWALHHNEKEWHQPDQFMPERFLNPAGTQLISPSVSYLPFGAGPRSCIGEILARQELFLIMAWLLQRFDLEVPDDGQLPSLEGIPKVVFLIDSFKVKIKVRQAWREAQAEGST

[2] = test system: rat Cyp11B enzyme (rat adrenal mitochondria); experiment: CYP11B enzymatic assay (% inhibition at 100 nM) (Biological Example 9); format: biochemical; conditions: for CYP11B enzymatic assay % inhibition at 100 nM (Biological Example No. 9): compound at 100 nM
Procedure: Adrenals excised from Sprague Dawley rats were homogenized, and mitochondria fraction were prepared by a series of centrifugation as described in Shuji Ohno, et al. J. of Steroid Biochemistry & Molecular Biology 2002, 80, 355-363. Prepared mitochondria protein was washed and resuspended in Buffer B (0.21 M mannitol, 70 mM sucrose, 5 mM MgCl2, 0.5 mM CaCl2, 20 mM Tris-HCl (pH 7.4) and 1 mM DTT, […]). The protein concentration was determined by BCA assay and stored as 10 μL aliquots at −80° C.
The rat Cyp11B enzyme assay was performed in 96-well plates. Typical assays were carried out in total 50 μL volume that included test compounds at 100 nM concentration, 1× Buffer B, 0.5 mM NADPH, 0.1 μM 11-deoxycortisol, and 2 μL of prepared rat adrenal mitochondria (added last). Reaction without test compound served as positive control and reaction without NADPH served as negative control. Reactions were allowed to incubate at 37° C. for 60 min with gentle shaking. The reaction was stopped by directly applying the enzymatic reaction mixture (1:5 diluted in ELISA assay buffer) to ELISA plate for evaluation of cortisol concentration according to manufacturer's protocol (Assay Design).
The mean absorbance value for each sample was used to determine the corresponding concentration from the standard curve. Amount of cortisol in the negative control (reaction that dis not include NADPH) was subtracted from total cortisol. Percent inhibition (inhibition %) of the compound was calculated using normalized cortisol concentration based on following formula: 100−([Cortisol] of compound/[Cortisol] of positive control *100).

[3] = target: T2, Cyp21 enzyme (Human HEK 293-Cyp21 stable transfected cells) (Homo sapiens, UniProt P08686); experiment: CYP21-HEK293 enzymatic assay (IC50) (Biological Example 11); format: cell-based; conditions: HEK 293-Cyp21 cells; read-out: CYP21-HEK293 enzymatic assay IC50 (Biological Example No. 11)
T2 construct: expressed in transfected cells
T2 sequence (P08686 1-495): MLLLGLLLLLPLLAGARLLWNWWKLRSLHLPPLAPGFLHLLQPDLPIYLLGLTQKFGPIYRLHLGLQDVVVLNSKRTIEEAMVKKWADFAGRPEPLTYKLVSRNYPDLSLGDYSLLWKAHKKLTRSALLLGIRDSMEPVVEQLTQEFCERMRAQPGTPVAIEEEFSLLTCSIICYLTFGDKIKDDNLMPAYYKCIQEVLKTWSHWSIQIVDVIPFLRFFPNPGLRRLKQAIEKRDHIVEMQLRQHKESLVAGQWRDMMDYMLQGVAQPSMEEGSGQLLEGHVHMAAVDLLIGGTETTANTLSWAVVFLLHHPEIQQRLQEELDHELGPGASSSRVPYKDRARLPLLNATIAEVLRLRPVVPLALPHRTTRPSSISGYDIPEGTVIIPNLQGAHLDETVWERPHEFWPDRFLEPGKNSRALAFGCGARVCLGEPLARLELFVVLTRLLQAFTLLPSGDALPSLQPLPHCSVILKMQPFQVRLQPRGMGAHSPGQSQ

[4] = target: T1, CYP17 (human testicular microsome); experiment: CYP17 enzymatic assay (% inhibition at 1 nM) (Biological Example 12); format: biochemical
[5] = target: T1, CYP17 (human testicular microsome); experiment: CYP17 enzymatic assay (% inhibition at 10 nM), version 1 (Biological Example 5); format: biochemical; conditions: 10 nM compound, DHEA by ELISA, read-out: Biological Example No. 5: CYP17 percent inhibition at 10 nM (version 1)
CYP17 (H295R cells) = target: T3, CYP17 (H295R cells) (Homo sapiens, UniProt P05093); experiment: CYP17 cellular assay (IC50), testosterone in H295R cells (Biological Example 7); format: cell-based; conditions: H295R cells
T3 construct: endogenous in cells; host or cells: H295R cells
T3 sequence (P05093 1-508): T1 sequence (P05093 1-508)
How it was run: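 H295R cells cultured 24 h, then exposed to compound at 100, 10, 1, 0.1 nM final in serum-free DMEM/F-12 with ITS+ and 0.1% methanol for 24 h at 37 °C. Medium testosterone measured by ELISA and plotted against compound concentration.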

[6] = Human liver microsome stability assay (Biological Example 8b); conditions: liver microsomes, pH 7.4
Procedure: The reaction was started with addition of excess NADPH (5 mg/mL, 15 μL in 0.1 M potassium phosphate buffer, 1.0 mM EDTA, pH 7.4), the total volume is 45 μL (compound final concentration was 1 μM). […] 50 μL of the supernatant was transferred from each well into a 96-well sample plate containing 50 μL of ultra-pure water (Millipore) for LC-MS/MS analysis.

[7] = read-out: CYP17 enzymatic assay IC50 (Biological Example No. 4)
[8] = compound at 1 nM, read-out: CYP17 enzymatic assay % inhibition at 1 nM (Biological Example No. 12)

CCC(=O)N1CCC[C@@]2(C)[C@@H](CC[C@@H]3[C@@H]2CC[C@]2(C)C(n4ccnc4)=CC[C@@H]32)C1 [Compound 441, 1-((5aR,5bS,7aS,10aS,10bR,12aR)-8-(1H-imidazol-1-yl)-5a,7a-dimethyl-3,4,5,5a,5b,6,7,7a,10,10a,10b,11,12,12a-tetradecahydrocyclopenta[5,6]naphtho[2,1-c]azepin-2(1H)-yl)propan-1-one]
pIC50 [1, 7]: > 7.96 | CYP11B enzymatic assay % inhibition at 100 nM (Biological Example No. 9) [2]: U (U means the compound had a percent inhibition of greater than or equal to 32%) | pIC50 [3]: 7.00 to 8.00 | inhibition at 0.001 µM [4, 8]: 10 to 50%

CCC(=O)N1CCC[C@@]2(C)C(CCC3C2CC[C@]2(C)C(c4cccnc4)=CCC32)C1 (stereo partly drawn) [Compound 435, 1-((5aR,7aS)-5a,7a-dimethyl-8-(pyridin-3-yl)-3,4,5,5a,5b,6,7,7a,10,10a,10b,11,12,12a-tetradecahydrocyclopenta[5,6]naphtho[2,1-c]azepin-2(1H)-yl)propan-1-one]
pIC50 [1, 7]: > 7.96 | CYP11B enzymatic assay % inhibition at 100 nM (Biological Example No. 9) [2]: U (U means the compound had a percent inhibition of greater than or equal to 32%) | pIC50 [3]: < 6.00 | inhibition at 0.001 µM [4, 8]: 10 to 50%

C[C@]12CC[C@H](O)CC1=CC[C@@H]1[C@@H]2CC[C@]2(C)C(c3cccnc3)=CC[C@@H]12 [C, (3S,8R,9S,10R,13S,14S)-10,13-dimethyl-17-(pyridin-3-yl)-2,3,4,7,8,9,10,11,12,13,14,15-dodecahydro-1H-cyclopenta[a]phenanthren-3-ol, reference compound]
pIC50 ([1]; DHEA by ELISA, read-out: Biological Example No. 4: CYP17 enzymatic assay IC50): > 7.96 | inhibition at 0.01 µM [5]: > 80% | pIC50 (CYP17 (H295R cells); testosterone by ELISA, 24 hours, read-out: Biological Example No. 7: CYP17 cellular assay IC50): > 7.82 | Biological Example No. 9: CYP11B percent inhibition at 100 nM ([2]; 100 nM compound, cortisol by ELISA): T (T means the compound had a percent inhibition of less than 32% when tested at 100 nM) | inhibition at 0.001 µM ([4]; 1 nM compound, DHEA by ELISA, read-out: Biological Example No. 12: CYP17 percent inhibition at 1 nM): > 50% | half-life at 1 μM [6]: 1 to 50 min

CCCC(=O)N1CCC2CC[C@@H]3[C@H](CC[C@]4(C)C(n5ccnc5)=CC[C@@H]34)[C@@]2(C)CC1 (stereo partly drawn) [Compound 434, 1-((5aS,7aS)-8-(1H-imidazol-1-yl)-5a,7a-dimethyl-1,2,5,5a,5b,6,7,7a,10,10a,10b,11,12,12a-tetradecahydrocyclopenta[5,6]naphtho[1,2-d]azepin-3(4H)-yl)butan-1-one]
pIC50 [1, 7]: > 7.96 | CYP11B enzymatic assay % inhibition at 100 nM (Biological Example No. 9) [2]: T (T means the compound had a percent inhibition of less than 32% when tested at 100 nM) | pIC50 [3]: < 6.00 | inhibition at 0.001 µM [4, 8]: > 50%

Cc1ccncc1C1=CCC2C3CN(C)C4=CC(=O)CC[C@]4(C)C3CC[C@]12C (stereo partly drawn) [Compound 444, (9aR,11aS)-5,9a,11a-trimethyl-1-(4-methylpyridin-3-yl)-3b,4,5,8,9,9a,9b,10,11,11a-decahydro-3H-cyclopenta[i]phenanthridin-7(3aH)-one]
pIC50 (CYP17 (H295R cells); testosterone, read-out: CYP17 cellular assay IC50 (Biological Example No. 7)): > 7.82 | CYP11B enzymatic assay % inhibition at 100 nM (Biological Example No. 9) [2]: U (U means the compound had a percent inhibition of greater than or equal to 32%) | inhibition at 0.001 µM [4, 8]: 10 to 50%

COC(=O)N1CCC[C@@]2(C)[C@@H](CC[C@@H]3[C@@H]2CC[C@]2(C)C(n4ccnc4)=CC[C@@H]32)C1 [Compound 442, (5aR,5bS,7aS,10aS,10bR,12aR)-methyl 8-(1H-imidazol-1-yl)-5a,7a-dimethyl-3,4,5,5a,5b,6,7,7a,10,10a,10b,11,12,12a-tetradecahydrocyclopenta[5,6]naphtho[2,1-c]azepine-2(1H)-carboxylate]
CYP11B enzymatic assay % inhibition at 100 nM (Biological Example No. 9) [2]: U (U means the compound had a percent inhibition of greater than or equal to 32%) | pIC50 [3]: < 7.00 | inhibition at 0.001 µM [4, 8]: 10 to 50%

CCC(=O)N1CCC2CCC3C(CC[C@]4(C)C(c5cccnc5)=CCC34)[C@@]2(C)CC1 (stereo partly drawn) [Compound 436, 1-((5aS,7aS)-5a,7a-dimethyl-8-(pyridin-3-yl)-1,2,5,5a,5b,6,7,7a,10,10a,10b,11,12,12a-tetradecahydrocyclopenta[5,6]naphtho[1,2-d]azepin-3(4H)-yl)propan-1-one]
pIC50 [1, 7]: > 7.96 | CYP11B enzymatic assay % inhibition at 100 nM (Biological Example No. 9) [2]: T (T means the compound had a percent inhibition of less than 32% when tested at 100 nM) | pIC50 [3]: < 6.00 | inhibition at 0.001 µM [4, 8]: 10 to 50%
